Measured values from patent US20120022047A1, “PROCESS FOR THE PURIFICATION OF ESLICARBAZEPINE ACETATE” (GLENMARK GENERICS LTD, priority 2009, published 2012).

Legend:
[1] = Particle size distribution by laser diffraction (Malvern Mastersizer); format: physicochemical; conditions: crystal particles obtained by the processes herein described
Source text: As used herein, the phrase, “particle size distribution (PSD)” means the cumulative volume size distribution of equivalent spherical diameters as determined by laser diffraction at 1 bar dispersive pressure in a Sympatec Helos equipment. d10, as used herein is defined as the particle size at which the cumulative percentage undersize is 10 (i.e. the bottom 10% of particles are less than or equal to the stated size). d50 means the median particle size and d90 is defined as the particle size at which the cumulative percentage undersize is 90 (i.e. the bottom 90% of particles are less than or equal to the stated size). The particle size of eslicarbazepine acetate was measured under following conditions. [table] In accordance with the invention, the size distribution of eslicarbazepine acetate particles is determined by laser diffraction. In the present invention, the method in the determination of the size of eslicarbazepine acetate particles employed a Malvern Mastersizer laser diffraction instrument. Samples of the eslicarbazepine acetate were suspended in hexane containing a surfactant, 1% Tween80®. The suspensions were mixed and then sonicated for 120 seconds to thoroughly disperse the eslicarbazepine acetate particles. The dispersion was then circulated in the flow cell of the Malvern Mastersizer for two minutes before particle size measurements were taken.

[2] = Specific surface area by Brunauer-Emmett-Teller (B.E.T.) nitrogen absorption; format: physicochemical; conditions: crystal particles, measured by B.E.T.
Source text: Specific surface area is defined in units of square meters per gram (m2/g). It is usually measured by nitrogen absorption analysis. In this analysis, nitrogen is absorbed on the surface of the substance. The amount of the absorbed nitrogen (as measured during the absorption or the subsequent desorption process) is related to the surface area via a formula known as the Brunauer Emmet Teller (B.E.T.) formula.

With `CC(=O)O[C@H]1Cc2ccccc2N(C(N)=O)c2ccccc21` [eslicarbazepine acetate, (S)-(−)-10-(acetyloxy)-10,11-dihydro-5H-dibenz[b,f]-azepine-5-carboxamide] the “Particle size distribution d 10” value [1] was 5.421 μm, the “Particle size distribution d 50 (median particle size)” value [1] was 19.780 μm and the “Particle size distribution d 90” value [1] was 168.686 μm. The Specific surface area [2] was “about 1.37 m^2/g”.
